The first assay deals with Radical scavenging activity. The assay is described as follows: Antioxidant activity assessed as DPPH radical scavenging activity.
Details: not given; call rule not given here
It is filed as functional.
For `O=C1OC(=O)c2ccc(Br)c3cccc1c23`, the 50% inhibitory concentration (IC50) result was “Not Active”.

The assay is the same for the next values; noted with them: read-out: IC50.
`O=C1c2cccc3c(NCCO)c([N+](=O)[O-])cc(c23)C(=O)N1CCO`: the IC50 is 231 µM. Still for that read-out and setting: under `O=C1c2cccc3c(NCc4ccccc4)c([N+](=O)[O-])cc(c23)C(=O)N1Cc1ccccc1` stands 43.1 µM. Consider `CCCNc1ccc2c3c(cccc13)C(=O)N(C[C@@]1(C)CCC[C@]3(C)c4ccc(C(C)C)cc4CCC13)C2=O` (some centres not stated), for which the IC50 turned out to be 210 µM. On the same count and under the same terms, under `O=C1c2cccc3c(Br)ccc(c23)C(=O)N1Cc1ccccc1` stands 238 µM.

`O=C1NC(=O)c2cccc3cccc1c23`: the IC50 turned out to be 149 µM. On the same count and under the same terms, under `O=C1c2cccc3cccc(c23)C(=O)N1c1ccccc1` stands 130 µM. The same measure, in the same setting: in the case of `Cc1ccc(Nc2c([N+](=O)[O-])cc3c4c(cccc24)C(=O)N(c2ccc(C)cc2)C3=O)cc1` it was 42.2 µM. On to `O=C1c2cccc3c(NCc4ccccc4)ccc(c23)C(=O)N1Cc1ccccc1`, for which the IC50 was found to be 84.6 µM. The same measure, in the same setting: under `O=C1c2cccc3cccc(c23)C(=O)N1Cc1ccccc1` stands 143 µM; under `CCCCNc1ccc2c3c(cccc13)C(=O)N(CCCC)C2=O`, 320 µM; under `CCCCN1C(=O)c2cccc3cccc(c23)C1=O`, 183 µM. Same read-out and setting: in the case of `Cc1cc(C(C)(C)C)c(O)c(C(C)(C)C)c1` [BUTYLATED HYDROXYTOLUENE] it was 65.8 µM. Regarding `O=C1c2cccc3cccc(c23)C(=O)N1Nc1ccccc1`, the IC50 worked out at 147 µM.

In the case of `O=C1OC(=O)c2cccc3cccc1c23` [1,8-NAPHTHALIC ANHYDRIDE], the IC50 came out at 1770 µM. The same measure, in the same setting: under `CC(C)c1ccc2c(c1)CCC1[C@@](C)(CN3C(=O)c4cccc5cccc(c45)C3=O)CCC[C@]21C` (some centres not stated) stands 166 µM; under `CCCCNc1ccc2c3c(cccc13)C(=O)N(C[C@@]1(C)CCC[C@]3(C)c4ccc(C(C)C)cc4CCC13)C2=O` (some centres not stated), 206 µM.

With `O=C1c2cccc3cccc(c23)C(=O)N1CCO`, the IC50 was 155 µM. Still for that read-out and setting: in the case of `CCCN1C(=O)c2cccc3cccc(c23)C1=O` it was 179 µM. Take `NN1C(=O)c2cccc3cccc(c23)C1=O`: the IC50 amounted to 187 µM. `CCCNc1c([N+](=O)[O-])cc2c3c(cccc13)C(=O)N(CCC)C2=O`: the concentration for half-maximal inhibition (IC50) came out at 231 µM.

On to `CCCNc1ccc2c3c(cccc13)C(=O)N(CCC)C2=O`, for which the IC50 was determined as 351 µM. The same measure, in the same setting: under `CC(C)c1ccc2c(c1)CCC1[C@@](C)(CN3C(=O)c4cccc5c(NCc6ccccc6)ccc(c45)C3=O)CCC[C@]21C` (some centres not stated) stands 61.9 µM.

For `CC(C)c1ccc2c(c1)CCC1[C@@](C)(CN3C(=O)c4cccc5c(Br)ccc(c45)C3=O)CCC[C@]21C` (some centres not stated), the IC50 is 208 µM. Still for that read-out and setting: in the case of `CC(C)c1ccc2c(c1)CCC1[C@@](C)(CN3C(=O)c4cccc5c(NCCO)ccc(c45)C3=O)CCC[C@]21C` (some centres not stated) it was 221 µM. On the same count and under the same terms, under `O=C1OC(=O)c2cc([N+](=O)[O-])c(Br)c3cccc1c23` stands 54 µM; under `CCCCNc1c([N+](=O)[O-])cc2c3c(cccc13)C(=O)N(CCCC)C2=O`, 215 µM.

Values taken from ChEMBL document CHEMBL3045334, “Microwave-assisted synthesis and evaluation of naphthalimides derivatives as free radical scavengers” (Med Chem Res, 2011).
